Measurements published in patent US20140088006A1, “Stem Cell Mobilization and Tissue Repair and Regeneration” (Wellstat Therapeutics Corporation, priority 2011, published 2014).
“And” between values parts separate entries of the source, which are not always exact repeats. Equal values may be shown once. No end group written: not given here.

Legend:
[1] = test system: full-thickness cutaneous wounds; experiment: Excisional wound healing model in db/db mice; format: in vivo; design: Wound area measurements, Day 14: unit not given here; conditions: for Wound healing rate: individual mice; for Wound healing rate / Wound area measurements, Day 14 / Wound area, Percent of original size: 5 mg/kg; for Wound area measurements, Day 14 / Wound area, Percent of original size: individual wounds
Description: The average time to wound closure between db/db mice and non-diabetic C57BL6 mice was compared in a pilot experiment. Paired 6-mm full-thickness cutaneous wounds were made on the dorsa of mice after depilation with a sterile Miltex biopsy punch (VWR #21909-144). To prevent wound contraction during the healing process, 0.5 g/mL polyisobutyl methacrylate (Sigma #445754) in toluene (Sigma #244511) was applied over wounds 24 hours after wounding. After methacrylate hardened, a transparent dressing (Tagaderm, Lab Safety Supply #53379) was placed over wounds. Two groups of mice (5 mice per group) received intravenous injections of either Vehicle or Compound X (5 mg/kg) starting on day one post wounding and continuing daily for four consecutive days at Zeitgeber time 4 (ZT4), 4 hr after onset of light to time mobilization of stem cells with circadian oscillations (Frenette et. al. 2008).
Digital photographs of the wounds were taken on days 0, 7, 10 and 14. Wound areas were measured by manually tracing the border of unhealed area and quantified as a percent area of the original wound size. The size of the traced area was calculated automatically using the Image J (NIH) analysis program. The following calculation was used to determine the wound healing rate: (Area of original wound−Area of remaining wound)÷Area of original wound×100. […]
In the next experiment, 2 groups of db/db mice (6 mice per group) received paired 6-mm full-thickness cutaneous wounds. Mice then received intravenous injections of either Vehicle or Compound X (5 mg/kg) starting on day one post wounding and continuing daily for four consecutive days at ZT4. Wounds were monitored until complete closure in control group on day 21. To limit wound contraction during the healing process, a donut shaped silicone splint was centered on the wound and glued (cyanoacrylate adhesive) to the skin.
Ten mice were treated per group with 3 mice from each group being sacrificed for histology at day 10 post-wounding. Wound closure in the Compound X treated group was mostly achieved by the 14th day, while control wounds were closed between days 18-21 post-wounding. […] This was similar to data generated in previous experiments.

[2] = test system: streptozotocin-induced diabetic mice; experiment: STZ diabetes model; format: in vivo, C57BL/6 female mice
Description: In order to look at the ability of Compound X mobilized stem cells to mediate tissue regeneration in vivo subcutaneous injections of 250 μg/kg of Compound X were compared with the ability of Compound X treated bone marrow cells to regenerate pancreas in a streptozoticin-induced diabetic model. Streptozotocin (STZ) is an antibiotic that preferentially kills the insulin secreting beta cells in pancreas. STZ-induced diabetes is a widely used model of pancreatic insufficiency.
Streptozotocin was dissolved and diluted into citric acid buffer (pH 4.5) immediately before injections. Drinking water and food were removed for 6 hours from 8-week old C57BL/6 female mice (Charles River) before mice were given a single intraperitoneal dose of 150 mg/kg STZ (Day −4). Blood for glucose determination was obtained from the tail vein four days post STZ. Blood glucose was measured by using an Elite glucometer (Bayer). Mice were considered diabetic if their blood glucose was >300 mg/dL. Mice showing >300 mg/dL blood glucose were randomized and divided into 5 groups of 10 mice (day 0). […]
After 96 hours of expansion, cells were harvested and processed for fluorescence activated cell sorting (FACS). […] Stained cells were excited with laser 2 (488 nm) and fluorescence emission was detected using the following optical filters, FL-3 (PerCP-Cy5.5) 695/BP40, FL-2 (phycoerythrin) 585/BP42 and FL-1 (FITC) 530/BP30. […]

[3] = i.v. 5 mg/kg daily for 4 days, Day 7
[4] = i.v. 5 mg/kg daily for 4 days, Day 10
[5] = second experiment, i.v. 5 mg/kg daily for 4 days, 14 days post-wounding

FPHFDLSHGSAQV [Compound X, tridecapeptide that acts on stem cells]
Wound healing rate, Average [1, 3]: 14.22% | Wound healing rate [1, 3]: 5.14% and 6.40% and 7.85% and 8.83% and 42.89% | Wound healing rate, Average [1, 4]: 38.68% | Wound healing rate [1, 4]: 17.47% and 13.96% and 65.36% and 17.51% and 79.10% | wound closure ([1]; i.v. 5 mg/kg daily for 4 days, ten days after wounding): 39% | Wound area measurements, Day 14 ([1]; second experiment (6 mice per group, silicone splint), i.v. 5 mg/kg daily for 4 days): 5865 and 19152 and 50090 and 21199 and 49486 and 3603 and 24952 and 59032 and 74676 and 52782 and 11094 and 58870 | Wound area, Percent of original size, Average [1, 5]: 8.05% | Wound area, Percent of original size [1, 5]: 1.11% and 5.19% and 10.08% and 7.02% and 10.48% and 0.82% and 4.45% and 12.48% and 14.28% and 13.38% and 2.48% and 14.93% | Wound area measurements, Day 14 ([1]; third experiment (ten mice per group), i.v. 5 mg/kg): 4104 and 24930 and 972 and 100098 and 7440 and 2808 and 324 and 78 and 180 and 21924 and 53715 and 22554 and 20406 and 168663 | wounds closed by day 14 (95%-100% closure) ([1]; third experiment, i.v. 5 mg/kg): 11 of 14 | Wound area, Percent of original size ([1]; third experiment, i.v. 5 mg/kg, 14 days post-wounding): 0.83% and 5.59% and 0.19% and 18.81% and 1.56% and 0.61% and 0.06% and 0.02% and 0.03% and 4.11% and 10.3% and 5.11% and 5.24% and 29.82% | time to wound closure ([1]; third experiment, i.v. 5 mg/kg, control closed between days 18-21): ≤ 14 days | Survival of STZ treated mice ([2]; s.c. 250 μg/kg for 5 consecutive days for 3 weeks, STZ 150 mg/kg): 100% | mice with substantial weight loss ([2]; s.c. 250 μg/kg stem cell mobilizing doses): No mice
